This passage reports IC50 results from patent publication US6596705B1, “Inhibition of L-selectin and P-selection mediated binding using heparin” (The Regents of the University of California, priority 1998, dated 2003).

One assay addresses L-selectin. Briefly: ELISA inhibition of L-selectin binding to immobilized SLe^x. The note with it: average of 2-3 experiments, concentration from assumed average molecular weight. On the procedure:
(§1) ELISA inhibition assays were performed as previously reported (O'Connell et al., Proc. Natl. Acad. Sci. USA 93:5883-5887 (1996); Koenig et al., supra, 1997). Sterile 96 well ELISA plates were coated with 200 ng of polyacrylamide-SLe^x (Glycotech; Rockville Md.) by overnight incubation at […] in 100 μl of 50 mM sodium carbonate/bicarbonate buffer, pH 9.5. Plates were blocked for at least 2 hours at 4° C. with 200 μl of 20 mM Hepes, 125 mM NaCl, 2 mM CaCl2, 2 mM MgCl2, 1% protease-free BSA, pH 7.45 (osmolarity 290 milliosmoles) per well. During the blocking step, the selectin-Rg chimeras were separately preincubated at 4° C. with a peroxidase-conjugated goat anti-human IgG secondary antibody (Jackson Immunoresearch Laboratories, Inc.; West Grove Pa.) in assay buffer for approximately 1 hour.
(§2) Final selectin-Rg concentration was 20 nM, and the secondary antibody dilution was 1:1000. […]
(§3) These tubes were preincubated at 4° C. for 30 minutes, then added to ELISA plates, in duplicates, to a well volume of 100 μl. […] The absorbance at 492 nm was determined using SOFTMAX software and a microplate reader (Molecular Devices Inc., Menlo Park Calif.). Prior to curve fitting, the absorbance values were converted into percentages for comparative purposes using the formula: ({(average of duplicates)−(negative control)}/{(positive control)−(negative control)})×100) using the SOFTMAX software.
On the technique in general: An ELISA detects its analyte on a solid surface through an enzyme-linked reagent.

In the next assay the target is P-selectin. Briefly: ELISA inhibition of P-selectin binding to immobilized SLe^x. The settings on record: average of 2-3 experiments, concentration from assumed average molecular weight. The protocol: as §1, §2, §3
P-selectin, sequence (P16109 42-195 limits assumed): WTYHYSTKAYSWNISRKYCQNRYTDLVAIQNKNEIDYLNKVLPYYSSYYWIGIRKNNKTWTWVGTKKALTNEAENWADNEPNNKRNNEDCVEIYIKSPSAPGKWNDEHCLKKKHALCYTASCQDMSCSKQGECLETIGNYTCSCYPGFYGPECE

L-selectin, sequence (P14151 39-318 limits assumed): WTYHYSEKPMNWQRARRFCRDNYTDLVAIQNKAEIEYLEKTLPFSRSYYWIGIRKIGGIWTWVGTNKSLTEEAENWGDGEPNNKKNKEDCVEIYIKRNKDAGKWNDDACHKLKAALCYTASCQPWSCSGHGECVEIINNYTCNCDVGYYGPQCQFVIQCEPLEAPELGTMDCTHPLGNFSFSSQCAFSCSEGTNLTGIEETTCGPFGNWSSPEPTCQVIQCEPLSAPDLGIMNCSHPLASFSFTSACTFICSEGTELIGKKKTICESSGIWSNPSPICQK

Consider “Siao2-3 Galβ1-4 (Fucal-3) GlcNAc [Sialyl Lewis^x]”, for which the IC50 at L-selectin was determined as 600 µM; at P-selectin, 520 µM.

The term IC50 denotes the point on the concentration scale where inhibition reaches its midpoint.
